Data published in US20030194750A1, “Methods for treatment of diseases where GSK 3-beta is desired, and methods to identify compounds usefule for that” (priority 2002, published 2003).
Structures can show the parent of a compound that is named as a salt.

Experiments:
rats [1] = experiment: 28-day study in rats; type: in vivo, rat
Procedure: A 28-day study in rats was also carried out at 0, 50, 500 and 2000 mg/kg/day.

rats [2] = experiment: Seven-day dose-range finding study in rats; type: in vivo, rat; conditions: 7 days
PDE4 = experiment: PDE inhibition, similar protocols; type: biochemical
human patients = experiment: Single, escalating dose human clinical safety study; type: in vivo; conditions: oral, 50 mg BID, 100 mg BID, 200 mg BID and 400 mg BID
dogs [3] = experiment: 91-day oral study in dogs; type: in vivo, dog
PKG1β = experiment: Western blot of PKG1β in SW480 cells; type: cell-based, human; conditions: various concentrations, 48 hours
Procedure: (§1) 50 μg protein/lane were analyzed by Western blot analysis using specific anti-PKG1β and anti-GSK3β-phospho-ser9 antibodies.

GSK3β = experiment: Western blot of GSK3β-phospho-ser9 in SW480 cells; type: cell-based, human; conditions: various concentrations, 48 hours, vs 0 concentration
Procedure: as §1

dogs [4] = experiment: Acute and seven-dose toxicity in dogs; conditions: dog, in vivo
Procedure: Therefore, these dogs were subsequently administered seven consecutive doses of 1000 mg/kg/day.

[5] = molecular target: T1, GST-cGB-PDE5 fusion protein (Homo sapiens, UniProt O76074); experiment: cGMP binding assay with GST-cGB-PDE5 fusion protein; conditions: 3H-cGMP 2 μM, 22° C., 1 hour
T1 construct: made in house; host or cells: E. coli BL21 (DE3)
Procedure: 5′-3′, Inc. kits for total RNA followed by oligo (dT) column purification of mRNA are used with HT-29 cells. […] It is then cloned into pGEX-5X-3 glutathione-S-transferase (GST) fusion vector (Pharmacia Biotech) with tac promoter, and EcoRI and XhoI cut sites. The fusion vector is then transfected into E. Coli BL21 (DE3) bacteria (Invitrogen). The transfected BL21 bacteria is grown to log phase, and then IPTG is added as an inducer. The induction is carried at 20° C. for 24 hrs. The bacteria are harvested and lysed. The soluble cell lysate is incubated with GSH conjugated Sepharose 4B (GSH-Sepharose 4B). The GST-cGB-PDE5 fusion protein can bind to the GSH-Sepharose beads, and the other proteins are washed off from beads with excessive cold PBS.
Then, the mixture is transferred to Brandel MB-24 cell harvester with GF/B as the filter membrane followed by 2 washes with 10 mL of cold 5 mM potassium buffer( pH 6.8). The membranes are then cut out and transferred to scintillation vials followed by the addition of 1 mL of H2O and 6 mL of Ready Safe™ liquid scintillation cocktail to each vial. The vials are counted on a Beckman LS 6500 scintillation counter.
The quenching by filter membrane or other debris are also calibrated.

PDE1 = experiment: PDE inhibition, similar protocols; type: biochemical
rats [6] = experiment: Long-term (91-day) safety assessment study in rats; type: in vivo, rat
Description: These changes were not associated with any gross clinical abnormality.

rats [7] = experiment: Acute toxicity study in rats; conditions: rat, in vivo
PDE 5 = PDE 5 (Homo sapiens, UniProt O76074); experiment: Competitive (with cGMP) binding to PDE5
[8] = 28 days, 50, 500 and 2000 mg/kg/day
[9] = 91 days, highest dose group (300 mg/kg/day)

CC1=C(CC(=O)NCc2ccccc2)c2cc(F)ccc2/C1=C\c1ccncc1 [Example 38, (Z)-5-Fluoro-2-Methyl-(4-Pyridylidene)-3-(N-Benzyl) Indenylacetamide Hydrochloride]
macroscopic tissue changes at necropsy (rats [1]; 28 days): No macroscopic tissue changes
histopathological evaluation of tissues (rats [1]; 28 days, 500 mg/kg/day): one female at 500 mg/kg/day had increased mitotic figures in the thyroid gland
liver weights (rats [1]; 28 days, 2000 mg/kg/day): statistically significant increase in liver weights
thyroid weights (rats [1]; 28 days, 2000 mg/kg/day): statistically significant increases in thyroid weights
body weight changes, ophthalmoscopic examinations, hematological and blood chemistry values, urinalysis (rats [1]; [8]): unremarkable
clinical observations (rats [1]; [8]): no abnormal clinical observations
liver and thyroid weight increases at the lower doses (rats [1]; 28 days, 50 and 500 mg/kg/day): not statistically significant
histopathological evaluation of tissues (rats [1]; 28 days, generally limited to a small number of animals at 2000 mg/kg/day): traces of follicular cell hypertrophy, increased numbers of mitotic figures (suggestive of possible cell proliferation) in the thyroid gland and mild centrilobular hypertrophy in the liver
signs of toxicity (rats [2]; 50 mg/kg/day): no observable signs of toxicity
treatment-related effects (rats [2]; 500 mg/kg/day): an increase in absolute and relative liver weights in female rats
treatment-related effects (rats [2]; 2000 mg/kg/day): labored breathing and/or abnormal respiratory sounds, decreased weights gains and food consumption in male rats, and increased liver weights in female rats
hematology, blood chemistry, microscopic pathology (rats [2]; any dose level (50, 500, 2000 mg/kg/day)): No hematological or blood chemistry changes nor any microscopic pathology changes
IC50 (PDE4): 6 µM
side effects (human patients): no significant side effects at any dose
route of elimination (suggested by feces colour) (dogs [3]; 91 days oral): most of Compound 38 was being eliminated via the feces
feces observation (dogs [3]; 91 days, 150 and 300 mg/kg/day): Orange discoloration of the feces
liver microscopy (dogs [3]; 91 days, highest dose group): no microscopic alterations
body weights (dogs [3]; [9]): Slightly lowered body weights
liver weights (dogs [3]; [9]): increased liver weights
toxicological effects overall (dogs [3]; oral, 91 consecutive days, 50, 150 and 300 mg/kg/day): no toxicological effects
PKG1 induction (PKG1β): PKG1 induction in a dose-dependent manner
GSK3β inactivation by Ser9 phosphorylation (GSK3β): inactivated in vivo by phosphorylation of its Ser9
signs of toxicity (dogs [4]; 1000 mg/kg): no signs of toxicity
signs of drug-related effects (dogs [4]; 1000 mg/kg/day): At no time in either dosing phase were any obvious signs of drug-related effects observed
competition with cGMP for the cGMP binding sites [5]: does not bind to the cGMP-binding site of PDE5
IC50 (PDE1): 3 µM
clinical biochemistry and hematology (rats [6]; 91 days): no changes in clinical biochemistry and hematology were evident
thyroid microscopy (rats [6]; 91 days, 500 mg/kg/day): follicular cell hypertrophy
kidney microscopy (rats [6]; 91 days, 200 and 500 mg/kg/day): increase in accumulation of hyalin droplets in the kidneys
liver microscopy (rats [6]; 91 days, 200 and 500 mg/kg/day): slight hepatocellular hypertrophy
liver and thyroid/parathyroid weights (rats [6]; 91 days, males and females at 200 and 500 mg/kg/day): dose-related trend to increased liver and thyroid/parathyroid weights
toxicological effects overall (rats [6]; oral, 91 consecutive days, 50, 200 and 500 mg/kg/day): did not produce any major toxicological effects
body weight gain (rats [7]; ip, 1000 mg/kg): reduced body weight gain
necropsy findings (rats [7]; ip, 1000 mg/kg): mesenteric adhesions seen in some animals
body weight gains (rats [7]; po, 2000 mg/kg): slightly reduced
competitive binding with cGMP to PDE5 (PDE 5): does competitively (with cGMP) bind to PDE 5
